Results from patent US7705053B2, “Benzamide derivative” (Chugai Seiyaku Kabushiki Kaisha, priority 2003, dated 2010).

How the values were obtained:
[1] = Body weight and toxicity findings in the antitumor test; type: in vivo; settings: 600 mg/kg, orally once daily for 11 days
Protocol: (§1) A cell suspension of human lung carcinoma cell line Calu-6 was prepared using Hanks' balanced salt solution, and 5.0×10^6 of the cells were implanted subcutaneously in the flank region of female Balb/c nude mice. When the volume of the tumor reached 200 to 250 mm^3, the test compound was orally administered once daily for 11 days. The tumor volume was calculated from the equation π/6×(long diameter×short diameter×thickness). The tumor growth inhibition rate was calculated from changes in the tumor volume in the test compound treatment group relative to changes in the tumor volume in the control group.
(§2) The results of the antitumor test of compound 1-1-1 and compound 2-1-1, as representative examples of the compounds of the present invention, are shown in FIGS. 1-(A) and 1-(B) and 2-(A) and 2-(B).

[2] = system: Human umbilical vein endothelial cells (HUVEC); test: Cell proliferation assay (HUVEC); type: cell-based; settings: 72 hours, WST-1, read-out: 50% growth inhibition concentration (IC50 value) HUVEC
Protocol: (§3) The test compound was serially diluted with DMSO, and then diluted 1:50 with a Ca^2+,Mg^2+-free phosphate-buffered physiological saline. The resulting dilution (10 μl) was dispensed into a 96-well plate. Human umbilical vein endothelial cells (HUVEC, purchased from Clonetics) were suspended in PRMI 1640 medium supplemented with 10% bovine fetal serum, 30 μg/mL vascular endothelial cell growth supplement, and 50 μg/mL heparin. Human lung carcinoma cell line Calu-6 was suspended in MEM medium supplemented with 10% bovine fetal serum, 0.1 mM nonessential amino acid, and 1 mM sodium pyruvate. Each cell suspension (190 μL) was dispensed into the plate containing the test compound such that the cell count per well was 3,000 cells. The plate was incubated in a CO2 incubator (37° C., 5% CO2). After 72 hours, 20 μL WST-1 (produced by Roche Diagnostics) was added to each well and, after 2 hours of incubation, the absorbance at 450 nm (reference wavelength: 650 nm) was measured. The 50% growth inhibition concentration (IC50 value) of the test compound was calculated from the inhibition rate obtained when the test compound was added, in comparison with the reference value obtained when the test compound was not added.
(§4) The IC50 values, for HUVEC and Calu-6, of representative examples of the compounds of the present invention are shown in Table 1.

HUVEC = test: Tube formation assay; type: cell-based; settings: Homo sapiens, 264 h, 11 days of incubation, CD31 staining, read-out: capillary-like tube formation inhibition rates (%)
Protocol: An angiogenesis measurement kit (produced by KURABO) was charged with the test compound at final concentration of 20 μM, and incubated in a CO2 incubator (37° C., 5%). After 11 days of incubation, capillary-like tubes formed were fixed with 70% ethanol and visualized with a CD31 staining kit (produced by KURABO). Under a microscope, stain images of the wells were photographed, stored as an image file, and measured for the area of capillary-like tube formation by use of angiogenesis quantitative determination software of KURABO. The inhibition rates (%) of the test compound-charged wells were calculated, with the control taken as 100%.
The capillary-like tube formation inhibiting rates at 20 μM, against HUVEC, of representative examples of the compounds of the present invention are shown in Table 2.

[3] = system: Human lung carcinoma cell line Calu-6; test: Cell proliferation assay (Calu-6); type: cell-based; settings: Calu-6, 72 hours, WST-1, read-out: 50% growth inhibition concentration (IC50 value) Calu-6
Protocol: as §3, §4

[4] = system: blood vessels in the tumor tissue (Calu-6 xenograft); test: Measurement of the number of blood vessels in the tumor; type: in vivo, Balb/c nude mice; settings: 600 mg/kg, orally once daily for 11 days, mice, relative to control group
Source text: Measurement of the Number of Blood Vessels in the Tumor
5.0×10^6 Cells of human lung carcinoma cell line Calu-6 were implanted subcutaneously in the flank region of female Balb/c nude mice. When the volume of tumor reached 200 to 250 mm^3, the test compound was orally administered once daily for 11 days. Twenty-four hours after the final administration, xenograft tissue was removed from the mice, and a middle portion of the long diameter of the tumor was embedded, as a block 2 to 3 mm thick, in O.C.T. Compound, and preserved as a frozen tissue specimen. Frozen sections were prepared, and blood vessels in the tumor tissue were stained by an immunohistological method using anti-mouse CD31 antibody. The stained tissue was photographed under a microscope, and the images were stored as an image file. The number of the stained blood vessels was measured by Image Pro (Promega). The decrease rate of blood vessel density was calculated as a decrease rate relative to the blood vessel density in the control group.
The decrease rates of the blood vessel density in the tumor tissue following treatment with 600 mg/kg of compound 1-1-1 and compound 2-1-1, as representative examples of the compounds of the present invention, are shown in Table 3.

[5] = system: human lung carcinoma cell line Calu-6; test: Antitumor test (Calu-6 xenograft); type: in vivo, Balb/c nude mice; settings: 600 mg/kg, orally once daily for 11 days, mice
Protocol: as §1, §2

Row | SMILES | body weights of the mice [1] | findings of toxicity [1] | IC50 [2] [nM] | inhibition at 20 µM (HUVEC) [%] | IC50 [3] [µM] | Decrease (%) in intratumor blood vessel density [4] [%] | tumor growth inhibition rates (TGI) [5] [%]
1 | COc1ccc(C(N)=O)cc1C(=O)Nc1ccc(Cl)cc1 [Compound 1-1-1, 3-N-(4-chlorophenyl)-4-methoxyisophthalamide] | no decreases in the body weights of the mice were observed | no findings of toxicity observed | 2270 | 43 | > 100 | 44 | 82
2 | COc1ccc(C(N)=O)cc1C(=O)Nc1ccc(OC(F)(F)F)cc1 [Compound 1-2-1, 3-N-(4-trifluoromethoxyphenyl)-4-methoxyisophthalamide] |  |  | 2400 | 68 | > 100 |  | 
3 | COc1ccc(C(N)=O)cc1C(=O)Nc1ccc(Br)cc1F [Compound 1-3-1, 3-N-(4-bromo-2-fluorophenyl)-4-methoxy-isophthalamide] |  |  | 190 |  | > 50 |  | 
4 | COc1ccc(C(N)=O)cc1C(=O)Nc1cccc(Cl)c1Cl [Compound 1-3-2, 3-N-(2,3-dichlorophenyl)-4-methoxyisophthalamide] |  |  | 150 |  | > 50 |  | 
5 | COc1ccc(C(N)=O)cc1C(=O)Nc1ccccc1OC(F)(F)F [Compound 1-3-5, 4-methoxy-3-N-(2-trifluoromethoxyphenyl)-isophthalamide] |  |  | 140 | 91 | > 50 |  | 
6 | COc1ccc(C(N)=O)cc1C(=O)Nc1cccc2c1CCCC2 [Compound 1-3-6, 4-methoxy-3-N-(5,6,7,8-tetrahydronaphthalen-1-yl)isophthalamide] |  |  | 240 | 46 | > 50 |  | 
7 | COc1ccc(C(N)=O)cc1C(=O)Nc1ccccc1Cl [Compound 1-3-7, 3-N-(2-chlorophenyl)-4-methoxyisophthalamide] |  |  | 280 | 67 | > 50 |  | 
8 | COc1ccc(C(N)=O)cc1C(=O)Nc1cccc(C(F)(F)F)c1F [Compound 1-3-8, 3-N-(2-fluoro-3-trifluoromethylphenyl)-4-methoxyisophthalamide] |  |  | 350 |  | > 50 |  | 
9 | COc1ccccc1NC(=O)c1cc(C(N)=O)ccc1OC [Compound 1-3-10, 4-methoxy-3-N-(2-methoxyphenyl)isophthalamide] |  |  | 760 | 46 | > 50 |  | 
10 | COc1ccc(C(N)=O)cc1C(=O)Nc1ccccc1F [Compound 1-3-12, 3-N-(2-fluorophenyl)-4-methoxyisophthalamide] |  |  | 2540 | 27 | > 50 |  | 
11 | COc1ccc(C(N)=O)cc1C(=O)Nc1cc(C(F)(F)F)ccc1Cl [Compound 1-3-16, 3-N-(2-chloro-5-trifluoromethylphenyl)-4-methoxyisophthalamide] |  |  | 4600 | 80 | > 50 |  | 
12 | COc1ccc(C(N)=O)cc1C(=O)Nc1cc(C)c(F)cc1Cl [Compound 1-3-17, 3-N-(2-chloro-4-fluoro-5-methylphenyl)-4-methoxyisophthalamide] |  |  | 1200 | 80 | > 25 |  | 
13 | COc1cc(NC(=O)c2cc(C(N)=O)ccc2OC)cc(OC)c1 [Compound 1-3-18, 3-N-(3,5-dimethoxyphenyl)-4-methoxyisophthalamide] |  |  | 1250 | 29 | > 50 |  | 
14 | COc1ccc(C(N)=O)cc1C(=O)Nc1ccc(C(F)(F)F)cc1 [Compound 1-3-21, 4-methoxy-3-N-(4-trifluoromethylphenyl)isophthalamide] |  |  | 5100 | 71 | > 50 |  | 
15 | COc1ccc(C(N)=O)cc1C(=O)Nc1ccccc1C [Compound 1-3-23, 4-methoxy3-N-o-tolylisophthalamide] |  |  | 2850 | 27 | > 50 |  | 
16 | COc1ccc(C(N)=O)cc1C(=O)Nc1ccc(F)cc1F [Compound 1-3-24, 3-N-(2,4-difluorophenyl)-4-methoxyisophthalamide] |  |  | 5190 | 28 | > 50 |  | 
17 | COc1ccc(C(N)=O)cc1C(=O)Nc1cccc2ncccc12 [Compound 1-3-39, 4-methoxy-3-N-quinolin-5-yl-isophthalamide] |  |  | 2360 | 20 | > 25 |  | 
18 | COc1ccc(C(N)=O)cc1C(=O)Nc1ccc(Br)cc1Cl [Compound 1-3-41, 3-N-(4-bromo-2-chlorophenyl)-4-methoxyisophthalamide] |  |  | 40 | 82 | > 50 |  | 
19 | COc1ccc(C(N)=O)cc1C(=O)Nc1ccc(Br)cc1Br [Compound 1-3-45, 3-N-(2,4-dibromophenyl)-4-methoxyisophthalamide] |  |  | 50 | 31 | > 50 |  | 
20 | COc1ccc(C(N)=O)cc1/C=C/c1ccc(OC(F)(F)F)cc1 [Compound 2-1-1, 4-methoxy-3-[(E)-2-(4-trifluoromethoxyphenyl)vinyl]benzamide] | no decreases in the body weights of the mice were observed | no findings of toxicity observed | 170 | 93 | > 100 | 37 | 75
21 | COc1ccc(C(=O)NC2CCCC2)cc1/C=C/c1ccc(OC(F)(F)F)cc1 [Compound 2-2-1, N-cyclopentyl-4-methoxy-3-[(E)-2-(4-trifluoromethoxy-phenyl)vinyl]benzamide] |  |  | 3350 | 60 | > 50 |  | 
22 | CNC(=O)c1ccc(OC)c(/C=C/c2ccc(OC(F)(F)F)cc2)c1 [Compound 2-2-2, 4-methoxy-N-methyl-3-[(E)-2-(4-trifluoromethoxyphenyl)-vinyl]-benzamide] |  |  | 2270 | 77 | > 50 |  | 
23 | CCNC(=O)c1ccc(OC)c(/C=C/c2ccc(Cl)cc2)c1 [Compound 2-2-9, 3-[(E)-2-(4-chlorophenyl)-vinyl]-N-ethyl-4-methoxy-benzamide] |  |  | 1410 | 79 | > 25 |  | 
